Results as given in PMC7884382, “A Phase 1 study of RO6870810, a novel bromodomain and extra-terminal protein inhibitor, in patients with NUT carcinoma, other solid tumours, or diffuse large B-cell lymphoma” (British Journal of Cancer, 2020).
Read-outs that look alike come from different tables or passages of the source.

Conditions: in vivo
Protocol: Patients were considered evaluable for safety if they received ≥1 injection of the study drug. All adverse events (AEs) were graded per the National Cancer Institute’s Common Terminology Criteria for Adverse Events (CTCAE) version 4.03.
Grade ≤3 drug-related fever or skin or SC tissue disorders localised to the site of injection—including grade ≤3 rash, pruritus, skin induration or pain—were not considered DLTs.
Data for patients with NC and lymphoma were evaluated but not included in the MTD determination.

Q: With Cc1sc2c(c1C)C(c1ccc(Cl)cc1)=N[C@@H](CC(=O)NCCCN1CCN(C)CC1)c1nnc(C)n1-2 [RO6870810] as the molecule, how does the “Treatment-emergent AE: Injection site induration” value (human, 0.06 mg/kg) read?
A: 0 n (%)

Q: And the “Treatment-emergent AE: Injection site pain” value (human, 0.06 mg/kg)?
A: 1 (33.3) n (%)

Q: What about the “Treatment-emergent AE: Injection site pruritus” value (human, 0.06 mg/kg) of the same molecule?
A: 1 (33.3) n (%)

Q: What about the “Treatment-emergent AE: Injection site reaction” value (human, 0.06 mg/kg) of the same molecule?
A: 0 n (%)

Q: What about the “Treatment-emergent AE: Injection site swelling” value (human, 0.06 mg/kg) of the same molecule?
A: 0 n (%)

Q: What about the “Treatment-emergent AE: Malaise” value (human, 0.06 mg/kg) of the same molecule?
A: 1 (33.3) n (%)

Q: What about the “Treatment-emergent AE: Myalgia” value (human, 0.06 mg/kg) of the same molecule?
A: 0 n (%)

Q: And the “Treatment-emergent AE: Nausea” value (human, 0.06 mg/kg)?
A: 0 n (%)

Q: And the “Treatment-emergent AE: Thrombocytopenia” value (human, 0.06 mg/kg)?
A: 0 n (%)

Q: And the “Treatment-emergent AE: Vomiting” value (human, 0.06 mg/kg)?
A: 0 n (%)

Q: What about the “Treatment-emergent AE: Abdominal pain” value (human, 0.1 mg/kg) of the same molecule?
A: 1 (25.0) n (%)

Q: And the “Treatment-emergent AE: Anemia” value (human, 0.1 mg/kg)?
A: 2 (50.0) n (%)

Q: What about the “Treatment-emergent AE: Back pain” value (human, 0.1 mg/kg) of the same molecule?
A: 2 (50.0) n (%)

Q: And the “Treatment-emergent AE: Blood bilirubin increased” value (human, 0.1 mg/kg)?
A: 1 (25.0) n (%)

Q: And the “Treatment-emergent AE: Constipation” value (human, 0.1 mg/kg)?
A: 3 (75.0) n (%)

Q: What about the “Treatment-emergent AE: Cough” value (human, 0.1 mg/kg) of the same molecule?
A: 1 (25.0) n (%)

Q: What about the “Treatment-emergent AE: Decreased appetite” value (human, 0.1 mg/kg) of the same molecule?
A: 4 (100) n (%)

Q: What about the “Treatment-emergent AE: Dehydration” value (human, 0.1 mg/kg) of the same molecule?
A: 2 (50.0) n (%)

Q: What about the “Treatment-emergent AE: Diarrhea” value (human, 0.1 mg/kg) of the same molecule?
A: 3 (75.0) n (%)

Q: What about the “Treatment-emergent AE: Dizziness” value (human, 0.1 mg/kg) of the same molecule?
A: 2 (50.0) n (%)

Q: And the “Treatment-emergent AE: Dry mouth” value (human, 0.1 mg/kg)?
A: 1 (25.0) n (%)

Q: What about the “Treatment-emergent AE: Dysgeusia” value (human, 0.1 mg/kg) of the same molecule?
A: 0 n (%)

Q: What about the “Treatment-emergent AE: Dyspnea” value (human, 0.1 mg/kg) of the same molecule?
A: 1 (25.0) n (%)

Q: And the “Treatment-emergent AE: Fatigue” value (human, 0.1 mg/kg)?
A: 3 (75.0) n (%)

Q: What about the “Treatment-emergent AE: Headache” value (human, 0.1 mg/kg) of the same molecule?
A: 1 (25.0) n (%)

Q: What about the “Treatment-emergent AE: Hypomagnesaemia” value (human, 0.1 mg/kg) of the same molecule?
A: 0 n (%)

Q: And the “Treatment-emergent AE: Injection site erythema” value (human, 0.1 mg/kg)?
A: 2 (50.0) n (%)

Q: And the “Treatment-emergent AE: Injection site induration” value (human, 0.1 mg/kg)?
A: 3 (75.0) n (%)

Q: What about the “Treatment-emergent AE: Injection site pain” value (human, 0.1 mg/kg) of the same molecule?
A: 1 (25.0) n (%)

Q: What about the “Treatment-emergent AE: Injection site pruritus” value (human, 0.1 mg/kg) of the same molecule?
A: 0 n (%)

Q: What about the “Treatment-emergent AE: Injection site reaction” value (human, 0.1 mg/kg) of the same molecule?
A: 0 n (%)

Q: What about the “Treatment-emergent AE: Injection site swelling” value (human, 0.1 mg/kg) of the same molecule?
A: 1 (25.0) n (%)

Q: And the “Treatment-emergent AE: Malaise” value (human, 0.1 mg/kg)?
A: 1 (25.0) n (%)

Q: And the “Treatment-emergent AE: Myalgia” value (human, 0.1 mg/kg)?
A: 1 (25.0) n (%)

Q: What about the “Treatment-emergent AE: Nausea” value (human, 0.1 mg/kg) of the same molecule?
A: 2 (50.0) n (%)

Q: And the “Treatment-emergent AE: Thrombocytopenia” value (human, 0.1 mg/kg)?
A: 0 n (%)

Q: And the “Treatment-emergent AE: Vomiting” value (human, 0.1 mg/kg)?
A: 4 (100) n (%)

Q: And the “Treatment-emergent AE: Abdominal pain” value (human, 0.2 mg/kg)?
A: 1 (25.0) n (%)

Q: What about the “Treatment-emergent AE: Anemia” value (human, 0.2 mg/kg) of the same molecule?
A: 0 n (%)

Q: And the “Treatment-emergent AE: Back pain” value (human, 0.2 mg/kg)?
A: 1 (25.0) n (%)

Q: What about the “Treatment-emergent AE: Blood bilirubin increased” value (human, 0.2 mg/kg) of the same molecule?
A: 1 (25.0) n (%)

Q: What about the “Treatment-emergent AE: Constipation” value (human, 0.2 mg/kg) of the same molecule?
A: 1 (25.0) n (%)

Q: And the “Treatment-emergent AE: Cough” value (human, 0.2 mg/kg)?
A: 0 n (%)

Q: What about the “Treatment-emergent AE: Decreased appetite” value (human, 0.2 mg/kg) of the same molecule?
A: 3 (75.0) n (%)

Q: And the “Treatment-emergent AE: Dehydration” value (human, 0.2 mg/kg)?
A: 0 n (%)

Q: What about the “Treatment-emergent AE: Diarrhea” value (human, 0.2 mg/kg) of the same molecule?
A: 1 (25.0) n (%)

Q: And the “Treatment-emergent AE: Dizziness” value (human, 0.2 mg/kg)?
A: 1 (25.0) n (%)

Q: What about the “Treatment-emergent AE: Dry mouth” value (human, 0.2 mg/kg) of the same molecule?
A: 1 (25.0) n (%)

Q: And the “Treatment-emergent AE: Dysgeusia” value (human, 0.2 mg/kg)?
A: 1 (25.0) n (%)

Q: What about the “Treatment-emergent AE: Dyspnea” value (human, 0.2 mg/kg) of the same molecule?
A: 2 (50.0) n (%)

Q: And the “Treatment-emergent AE: Fatigue” value (human, 0.2 mg/kg)?
A: 2 (50.0) n (%)

Q: What about the “Treatment-emergent AE: Headache” value (human, 0.2 mg/kg) of the same molecule?
A: 1 (25.0) n (%)

Q: What about the “Treatment-emergent AE: Hypomagnesaemia” value (human, 0.2 mg/kg) of the same molecule?
A: 0 n (%)

Q: And the “Treatment-emergent AE: Injection site erythema” value (human, 0.2 mg/kg)?
A: 3 (75.0) n (%)

Q: And the “Treatment-emergent AE: Injection site induration” value (human, 0.2 mg/kg)?
A: 2 (50.0) n (%)

Q: And the “Treatment-emergent AE: Injection site pain” value (human, 0.2 mg/kg)?
A: 2 (50.0) n (%)

Q: And the “Treatment-emergent AE: Injection site pruritus” value (human, 0.2 mg/kg)?
A: 1 (25.0) n (%)

Q: And the “Treatment-emergent AE: Injection site reaction” value (human, 0.2 mg/kg)?
A: 0 n (%)

Q: What about the “Treatment-emergent AE: Injection site swelling” value (human, 0.2 mg/kg) of the same molecule?
A: 2 (50.0) n (%)

Q: And the “Treatment-emergent AE: Malaise” value (human, 0.2 mg/kg)?
A: 1 (25.0) n (%)

Q: What about the “Treatment-emergent AE: Myalgia” value (human, 0.2 mg/kg) of the same molecule?
A: 0 n (%)

Q: What about the “Treatment-emergent AE: Nausea” value (human, 0.2 mg/kg) of the same molecule?
A: 2 (50.0) n (%)

Q: What about the “Treatment-emergent AE: Thrombocytopenia” value (human, 0.2 mg/kg) of the same molecule?
A: 0 n (%)

Q: What about the “Treatment-emergent AE: Vomiting” value (human, 0.2 mg/kg) of the same molecule?
A: 2 (50.0) n (%)

Q: And the “Treatment-emergent AE: Abdominal pain” value (human, 0.3 mg/kg)?
A: 1 (16.7) n (%)

Q: What about the “Treatment-emergent AE: Anemia” value (human, 0.3 mg/kg) of the same molecule?
A: 2 (33.3) n (%)

Q: And the “Treatment-emergent AE: Back pain” value (human, 0.3 mg/kg)?
A: 0 n (%)

Q: And the “Treatment-emergent AE: Blood bilirubin increased” value (human, 0.3 mg/kg)?
A: 1 (16.7) n (%)

Q: And the “Treatment-emergent AE: Constipation” value (human, 0.3 mg/kg)?
A: 0 n (%)

Q: And the “Treatment-emergent AE: Cough” value (human, 0.3 mg/kg)?
A: 0 n (%)

Q: What about the “Treatment-emergent AE: Decreased appetite” value (human, 0.3 mg/kg) of the same molecule?
A: 6 (100) n (%)

Q: And the “Treatment-emergent AE: Dehydration” value (human, 0.3 mg/kg)?
A: 2 (33.3) n (%)

Q: What about the “Treatment-emergent AE: Diarrhea” value (human, 0.3 mg/kg) of the same molecule?
A: 2 (33.3) n (%)

Q: And the “Treatment-emergent AE: Dizziness” value (human, 0.3 mg/kg)?
A: 1 (16.7) n (%)

Q: What about the “Treatment-emergent AE: Dry mouth” value (human, 0.3 mg/kg) of the same molecule?
A: 2 (33.3) n (%)

Q: What about the “Treatment-emergent AE: Dysgeusia” value (human, 0.3 mg/kg) of the same molecule?
A: 1 (16.7) n (%)

Q: And the “Treatment-emergent AE: Dyspnea” value (human, 0.3 mg/kg)?
A: 0 n (%)

Q: And the “Treatment-emergent AE: Fatigue” value (human, 0.3 mg/kg)?
A: 2 (33.3) n (%)

Q: And the “Treatment-emergent AE: Headache” value (human, 0.3 mg/kg)?
A: 3 (50.0) n (%)

Q: And the “Treatment-emergent AE: Hypomagnesaemia” value (human, 0.3 mg/kg)?
A: 1 (16.7) n (%)

Q: What about the “Treatment-emergent AE: Injection site erythema” value (human, 0.3 mg/kg) of the same molecule?
A: 3 (50.0) n (%)

Q: And the “Treatment-emergent AE: Injection site induration” value (human, 0.3 mg/kg)?
A: 2 (33.3) n (%)

Q: What about the “Treatment-emergent AE: Injection site pain” value (human, 0.3 mg/kg) of the same molecule?
A: 2 (33.3) n (%)

Q: What about the “Treatment-emergent AE: Injection site pruritus” value (human, 0.3 mg/kg) of the same molecule?
A: 2 (33.3) n (%)

Q: And the “Treatment-emergent AE: Injection site reaction” value (human, 0.3 mg/kg)?
A: 0 n (%)

Q: And the “Treatment-emergent AE: Injection site swelling” value (human, 0.3 mg/kg)?
A: 2 (33.3) n (%)

Q: What about the “Treatment-emergent AE: Malaise” value (human, 0.3 mg/kg) of the same molecule?
A: 1 (16.7) n (%)

Q: What about the “Treatment-emergent AE: Myalgia” value (human, 0.3 mg/kg) of the same molecule?
A: 3 (50.0) n (%)

Q: What about the “Treatment-emergent AE: Nausea” value (human, 0.3 mg/kg) of the same molecule?
A: 3 (50.0) n (%)

Q: And the “Treatment-emergent AE: Thrombocytopenia” value (human, 0.3 mg/kg)?
A: 1 (16.7) n (%)

Q: And the “Treatment-emergent AE: Vomiting” value (human, 0.3 mg/kg)?
A: 2 (33.3) n (%)

Q: And the “Treatment-emergent AE: Injection site swelling” value (human, 0.65 mg/kg)?
A: 0 n (%)

Q: What about the “Recommended phase 2 dose” value (human, sc) of the same molecule?
A: 0.65 mg/kg

Q: What about the “DLTs due to thrombocytopenia” value of the same molecule?
A: no DLTs due to thrombocytopenia

Q: What about the “Left ventricular ejection fraction after reduction” value of the same molecule?
A: 45–50%
